Data as given in PubChem BioAssay (NCI).
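Results reflect a 48-hour exposure of cells in 96-well plates to compound at five concentrations. Here, GI50 denotes the concentration required for 50% inhibition of growth. TGI marks complete inhibition of growth.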

How the values were obtained:
Test in all cases: DTP human tumour cell line panel, 48 h
[1] = system: SW-620 colon
[2] = system: A549 NSCLC
[3] = system: SNB-19 CNS
[4] = system: RPMI-8226 leukemia
[5] = system: SK-MEL-5 melanoma
[6] = system: HL-60(TB) leukemia
[7] = system: SN12C renal
[8] = system: COLO 205 colon
[9] = system: OVCAR-8 ovarian
[10] = system: CAKI-1 renal
[11] = system: NCI-H226 lung
[12] = system: SF-268 CNS
[13] = system: HCT-15 colon
[14] = system: SK-MEL-28 melanoma
[15] = system: RXF 393 renal
[16] = system: KM12 colon
[17] = system: HOP-62 NSCLC
[18] = system: SF-539 CNS
[19] = system: A498 renal
[20] = system: MOLT-4 leukemia
[21] = system: HOP-92 NSCLC
[22] = system: NCI/ADR-RES ovarian
[23] = system: NCI-H460 lung
[24] = system: TK-10 renal
[25] = system: HS 578T breast
[26] = system: SK-OV-3 ovarian
[27] = system: NCI-H23 lung
[28] = system: CCRF-CEM leukemia
[29] = system: NCI-H522 lung
[30] = system: PC-3 prostate
[31] = system: EKVX NSCLC
[32] = system: OVCAR-4 ovarian
[33] = system: MDA-MB-468 breast
[34] = system: MCF7 breast
[35] = system: HCT-116 colon
[36] = system: SR leukemia
[37] = system: 786-0 renal
[38] = system: UACC-62 melanoma
[39] = system: MDA-MB-231 breast
[40] = system: IGROV1 ovarian
[41] = system: OVCAR-3 ovarian
[42] = system: OVCAR-5 ovarian
[43] = system: M14 melanoma
[44] = system: T-47D breast
[45] = system: MALME-3M melanoma
[46] = system: SK-MEL-2 melanoma
[47] = system: SF-295 CNS
[48] = system: K-562 leukemia
[49] = system: LOX IMVI melanoma
[50] = system: BT-549 breast
[51] = system: ACHN renal
[52] = system: SNB-75 CNS
[53] = system: UO-31 renal
[54] = system: MDA-MB-435
[55] = system: HCC-2998 colon
[56] = system: U251 CNS
[57] = system: DU-145 prostate
[58] = system: HT29 colon
[59] = system: UACC-257 melanoma

COc1ccc(N=Nc2c(N)nn3c(-c4cc5cc(Br)ccc5oc4=O)ccnc23)cc1
GI50 [1]: 5.86 µM | TGI [1]: 59.6 µM | GI50 [2]: 3.7 µM | TGI [2]: 16.9 µM | GI50 [3]: 4.05 µM | TGI [3]: 16.3 µM | GI50 [4]: 10.9 µM | TGI [4]: > 100 µM | GI50 [5]: 3.56 µM | TGI [5]: 13.6 µM | GI50 [6]: > 100 µM | TGI [6]: > 100 µM | GI50 [7]: 3.21 µM | TGI [7]: 14.1 µM | GI50 [8]: 6.15 µM | TGI [8]: 52.3 µM | GI50 [9]: 2.93 µM | TGI [9]: 11.1 µM | GI50 [10]: 3.47 µM | TGI [10]: 15.5 µM | GI50 [11]: 3.72 µM | TGI [11]: 14.5 µM | GI50 [12]: 3.72 µM | TGI [12]: 20 µM | GI50 [13]: 4.63 µM | TGI [13]: 79.8 µM | GI50 [14]: 4.78 µM | TGI [14]: 19 µM | GI50 [15]: 2.34 µM | TGI [15]: 7 µM | GI50 [16]: 4.17 µM | TGI [16]: > 100 µM | GI50 [17]: 2.09 µM | TGI [17]: 5.21 µM | GI50 [18]: 2.54 µM | TGI [18]: 6.26 µM | GI50 [19]: 2.64 µM | TGI [19]: 9.09 µM | GI50 [20]: > 100 µM | TGI [20]: > 100 µM | GI50 [21]: 2.48 µM | TGI [21]: 7.25 µM | GI50 [22]: 3.42 µM | TGI [22]: 13.1 µM | GI50 [23]: 2.96 µM | TGI [23]: 11.1 µM | GI50 [24]: 7.89 µM | TGI [24]: 24.8 µM | GI50 [25]: 3.08 µM | TGI [25]: > 100 µM | GI50 [26]: 3.67 µM | TGI [26]: 10.7 µM | GI50 [27]: 2.98 µM | TGI [27]: 10.1 µM | GI50 [28]: > 100 µM | TGI [28]: > 100 µM | GI50 [29]: 2.07 µM | TGI [29]: 6.43 µM | GI50 [30]: 4.56 µM | TGI [30]: 71.5 µM | GI50 [31]: 9.79 µM | TGI [31]: 35.5 µM | GI50 [32]: 3.69 µM | TGI [32]: 19.3 µM | GI50 [33]: 1.86 µM | TGI [33]: 6.2 µM | GI50 [34]: 3.5 µM | TGI [34]: 16.4 µM | GI50 [35]: 3.69 µM | TGI [35]: 12.4 µM | GI50 [36]: 99.7 µM | TGI [36]: > 100 µM | GI50 [37]: 2.36 µM | TGI [37]: 5.9 µM | GI50 [38]: 2.98 µM | TGI [38]: 12.1 µM | GI50 [39]: 2.9 µM | TGI [39]: 10.1 µM | GI50 [40]: 6.28 µM | TGI [40]: 22.8 µM | GI50 [41]: 3.85 µM | TGI [41]: > 100 µM | GI50 [42]: 4.86 µM | TGI [42]: 33.8 µM | GI50 [43]: 12.5 µM | TGI [43]: > 100 µM | GI50 [44]: 3.12 µM | TGI [44]: 13.5 µM | GI50 [45]: 3 µM | TGI [45]: 11.6 µM | GI50 [46]: 4.01 µM | TGI [46]: 18.2 µM | GI50 [47]: 2.7 µM | TGI [47]: 8.53 µM | GI50 [48]: 11.1 µM | TGI [48]: > 100 µM | GI50 [49]: 4.72 µM | TGI [49]: 16.4 µM | GI50 [50]: 4.38 µM | TGI [50]: 14.8 µM | GI50 [51]: 2.52 µM | TGI [51]: 7.17 µM | GI50 [52]: 1.73 µM | TGI [52]: 5.34 µM | GI50 [53]: 3.33 µM | TGI [53]: 15.4 µM | GI50 [54]: 7.87 µM | TGI [54]: > 100 µM | GI50 [55]: 4.63 µM | TGI [55]: 23.6 µM | GI50 [56]: 1.89 µM | TGI [56]: 4.24 µM | GI50 [57]: 5.43 µM | TGI [57]: > 100 µM | GI50 [58]: 3.51 µM | TGI [58]: > 100 µM | GI50 [59]: 7.3 µM | TGI [59]: 32 µM
